Assay results from patent US4044043A, “Derivatives of 9-oxo-13-trans-prostenoic acid esters” (American Cyanamid Company, priority 1975, dated 1977).
In brackets after ≈: the same amount, converted by molar mass.

system: bronchospasms elicited by histamine; assay: Bronchodilator Activity (Konzett Assay) against histamine; type: in vivo, guinea pigs; details: Cavia porcellus; three logarithmic cumulative intravenous doses
Experimental: (§1) Bronchodilator activity was determined in guinea pigs against bronchospasms elicited by intravenous injections of 5-hydroxytryptamine, histamine or acetylcholine by the Konzett procedure. [See J. Lulling, P. Lievens, F. El Sayed and J. Prignot, Arzeneimittel-Forschung, 18, 995 (1968)]. In Table IIIC which follows bronchodilator activity for representative compounds of this invention against one or more of the three spasmogenic agents is expressed as an ED50 determined from the results obtained with three logarithmic cumulative intravenous doses.

Structure (SMILES) | ED50 [mg/kg]
CCCCCCC=CC1CCC(C)(O)C1CCCCCCC(=O)O (stereo not drawn) [9-Hydroxy-9-methyl-13-trans-prostenoic acid] | 1.18
CCSCCC/C=C/[C@@H]1CCC(=O)[C@H]1CCCCCCC(=O)O (relative stereo) [9-oxo-18-thia-13-trans-prostenoic acid] | 1.38
CCOCCC/C=C/[C@@H]1CCC(=O)[C@H]1CCCCCCC(=O)O (relative stereo) [18-oxa-9-oxo-13-trans-prostenoic acid] | 1.5
O=C(O)CCCCCCC1C(O)CCC1C=CCCCCl (stereo not drawn) [9-hydroxy-20-chloro-17,18,19-trinor-13-trans-prostenoic acid] | > 10

system: diastolic blood pressure; assay: Prostaglandin-like hypotensive activity in anesthetized rats (minimal dose for about 10 mm. decrease in diastolic blood pressure); type: in vivo, Male Wistar strain rats; details: Rattus norvegicus; intravenous; decrease of about 10 mm. in diastolic blood pressure
Summary of the method: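 Male Wistar rats (~250 g), pentobarbital 30 mg./kg. i.v. and hexamethonium 2 mg./kg. i.v., iliac artery cannulated for blood pressure. Compounds in saline-Tween 80 given i.v. at 0.1–10.0 mg./kg.; value is the minimal dose giving ~10 mm. drop in diastolic pressure.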

Structure (SMILES) | minimal effective dose [mg/kg]
CCSCCC/C=C/[C@@H]1CCC(=O)[C@H]1CCCCCCC(=O)O (relative stereo) [9-oxo-18-thia-13-trans-prostenoic acid] | 0.2
CCOCCC/C=C/[C@@H]1CCC(=O)[C@H]1CCCCCCC(=O)O (relative stereo) [18-oxa-9-oxo-13-trans-prostenoic acid] | 2
O=C(O)CCCCCCC1C(O)CCC1C=CCCCCl (stereo not drawn) [9-hydroxy-20-chloro-17,18,19-trinor-13-trans-prostenoic acid] | 2

system: gastric acid secretion; assay: Inhibition of basal Gastric Acid Secretion (Acute Gastric Fistula Rat); type: in vivo, Female Sprague-Dawley rats; details: 2 h, 10 mg./kg. intraduodenal, B: 120 minute collection, read-out: % Inhibition Total Acid Output
Experimental: Inhibition of basal gastric acid secretion was determined in the acute gastric fistula rat as follows. Female Sprague-Dawley rats (Charles River Laboratories) weighing 140-160 grams are fasted in individual cages for 18-24 hours. The rats are then lightly anesthetized with ether and their front teeth extracted to avoid destruction of the plastic cannula. A midline incision is then made and the stomach and duodenum exposed. A flanged polyvinyl tube is inserted into the fundic portion of the stomach and secured with a purse string suture line using 4-0 Mersilene. The rat is then dosed by injection of the compound into the duodenum (1.0 ml. per 100 gram body weight). After dosing, the abdominal wall and skin are closed using metal wound clips. The rat is replaced in a cage containing a longitudinal slit to allow the polyvinyl tube to hang freely. An 8 ml. plastic collecting tube is attached to the flanged cannula and hangs freely below the cage. The first 30 minute sample is discarded designating this time as zero. The collecting tube is attached again and samples removed at the end of 60 and 120 minutes. Those samples are referred to as "A" and "B" in the table. The hourly samples are then transferred to a 15 ml. centrifuge tube and centrifuged for 5-10 minutes. Total and sediment volume are then recorded with the supernatant volume being used as volume of secretion. A 1 ml. or less aliquot is then removed and placed in a 50 ml. beaker containing 10 ml. of distilled water. This sample is then titrated using 0.01N NaOH to pH 7.0 using a Beckman zeromatic pH meter. Volume, titratable acidity (meq/L) and total acid output (μ eq/hour) are recorded. Percent inhibition is determined by comparison with the appropriate control. Groups of three rats were used. All compounds are administered in vehicle (0.5% methocel, 0.4% Tween 80, saline) at a constant volume of 1 ml./100 gram rat. Samples were sonicated with care to prevent overheating.

Structure (SMILES) | inhibition in vivo at 10 mg/kg [%]
CCCCCCC=CC1CCC(C)(O)C1CCCCCCC(=O)O (stereo not drawn) [9-Hydroxy-9-methyl-13-trans-prostenoic acid] | 31
CCOCCC/C=C/[C@@H]1CCC(=O)[C@H]1CCCCCCC(=O)O (relative stereo) [18-oxa-9-oxo-13-trans-prostenoic acid] | 56

same assay, conditions: 2 h, 10 mg./kg. intraduodenal, B: 120 minute collection, read-out: % Inhibition Total Acidity

Structure (SMILES) | inhibition in vivo at 10 mg/kg [%]
CCCCCCC=CC1CCC(C)(O)C1CCCCCCC(=O)O (stereo not drawn) [9-Hydroxy-9-methyl-13-trans-prostenoic acid] | 16
CCOCCC/C=C/[C@@H]1CCC(=O)[C@H]1CCCCCCC(=O)O (relative stereo) [18-oxa-9-oxo-13-trans-prostenoic acid] | 43

system: bronchospasms elicited by 5-hydroxytryptamine; assay: Bronchodilator Activity (Konzett Assay) against 5-hydroxytryptamine; type: in vivo, guinea pigs; details: Cavia porcellus; three logarithmic cumulative intravenous doses
Experimental: as §1

Structure (SMILES) | ED50 [mg/kg]
CCCCCCC=CC1CCC(C)(O)C1CCCCCCC(=O)O (stereo not drawn) [9-Hydroxy-9-methyl-13-trans-prostenoic acid] | 0.756
CCSCCC/C=C/[C@@H]1CCC(=O)[C@H]1CCCCCCC(=O)O (relative stereo) [9-oxo-18-thia-13-trans-prostenoic acid] | 1.99
CCOCCC/C=C/[C@@H]1CCC(=O)[C@H]1CCCCCCC(=O)O (relative stereo) [18-oxa-9-oxo-13-trans-prostenoic acid] | 1.92
O=C(O)CCCCCCC1C(O)CCC1C=CCCCCl (stereo not drawn) [9-hydroxy-20-chloro-17,18,19-trinor-13-trans-prostenoic acid] | 17.9

system: bronchospasms elicited by acetylcholine; assay: Bronchodilator Activity (Konzett Assay) against acetylcholine; type: in vivo, guinea pigs; details: Cavia porcellus; three logarithmic cumulative intravenous doses
Experimental: as §1

Structure (SMILES) | ED50 [mg/kg]
CCCCCCC=CC1CCC(C)(O)C1CCCCCCC(=O)O (stereo not drawn) [9-Hydroxy-9-methyl-13-trans-prostenoic acid] | 4.32
CCSCCC/C=C/[C@@H]1CCC(=O)[C@H]1CCCCCCC(=O)O (relative stereo) [9-oxo-18-thia-13-trans-prostenoic acid] | > 10
CCOCCC/C=C/[C@@H]1CCC(=O)[C@H]1CCCCCCC(=O)O (relative stereo) [18-oxa-9-oxo-13-trans-prostenoic acid] | > 10
O=C(O)CCCCCCC1C(O)CCC1C=CCCCCl (stereo not drawn) [9-hydroxy-20-chloro-17,18,19-trinor-13-trans-prostenoic acid] | > 10

system: dl-PGE1-induced contraction of gerbil colon; assay: Inhibition of dl-PGE1-Induced Contraction of Gerbil Colon (prostaglandin antagonist action); type: cell-based, gerbils (Meriones unguiculatus); details: Meriones unguiculatus, 1 min; sub-maximal challenge, 20 ng./ml. dl-PGE1; 50% inhibition of maximum response; read-out: ID50 vs. 20 ng. of PGE1/ml.
Summary of the method: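 Ascending colon from male gerbils, held in De Jalon's solution at 37 °C under 95% O2/5% CO2 with 0.5 g resting tension, contraction recorded isometrically. 1 min compound exposure, then 1 min dl-PGE1 at 200 ng/ml (maximal) or 20 ng/ml (sub-maximal). Approximate ID50 taken from a concentration series against the preceding agonist-only cycle.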

IC50 [µg/mL] | Structure (SMILES)
2 to 5 (≈ 5.91 to 14.8 µM) | CCCCCCC=CC1CCC(C)(O)C1CCCCCCC(=O)O (stereo not drawn) [9-Hydroxy-9-methyl-13-trans-prostenoic acid]
1 (≈ 2.94 µM) | CCSCCC/C=C/[C@@H]1CCC(=O)[C@H]1CCCCCCC(=O)O (relative stereo) [9-oxo-18-thia-13-trans-prostenoic acid]
15 to 25 (≈ 46.2 to 77.1 µM) | CCOCCC/C=C/[C@@H]1CCC(=O)[C@H]1CCCCCCC(=O)O (relative stereo) [18-oxa-9-oxo-13-trans-prostenoic acid]

system: Mycobacterium smegmatis ATCC 606; assay: agar-dilution streak-plate antimicrobial assay; type: cell-based; details: Mycolicibacterium smegmatis, ATCC606, read-out: Minimal inhibitory conc. (6)
Summary of the method: (§2)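 Test solutions at 2.5 mg/ml were two-fold serially diluted, and 1 ml of each was mixed into 9 ml warm nutrient agar, with bacterial and fungal media kept separate. Overnight broth cultures or saline spore suspensions were streaked by loop. MIC was the lowest concentration (µg/ml) giving complete visible growth inhibition.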

MIC [µg/mL] | Structure (SMILES)
250 (≈ 734 µM) | CCSCCC/C=C/[C@@H]1CCC(=O)[C@H]1CCCCCCC(=O)O (relative stereo) [9-oxo-18-thia-13-trans-prostenoic acid]

system: Trichophyton mentagrophytes E 11; assay: agar-dilution streak-plate antimicrobial assay; type: cell-based; details: E11, read-out: Minimal inhibitory conc. (4)
Summary of the method: as §2

MIC [µg/mL] | Structure (SMILES)
125 (≈ 367 µM) | CCSCCC/C=C/[C@@H]1CCC(=O)[C@H]1CCCCCCC(=O)O (relative stereo) [9-oxo-18-thia-13-trans-prostenoic acid]
250 (≈ 771 µM) | CCOCCC/C=C/[C@@H]1CCC(=O)[C@H]1CCCCCCC(=O)O (relative stereo) [18-oxa-9-oxo-13-trans-prostenoic acid]
250 (≈ 789 µM) | O=C(O)CCCCCCC1C(O)CCC1C=CCCCCl (stereo not drawn) [9-hydroxy-20-chloro-17,18,19-trinor-13-trans-prostenoic acid]

system: Trichophyton tonsurans NIH 662; assay: agar-dilution streak-plate antimicrobial assay; type: cell-based; details: NIH662, read-out: Minimal inhibitory conc. (3)
Summary of the method: as §2

MIC [µg/mL] | Structure (SMILES)
125 (≈ 367 µM) | CCSCCC/C=C/[C@@H]1CCC(=O)[C@H]1CCCCCCC(=O)O (relative stereo) [9-oxo-18-thia-13-trans-prostenoic acid]
250 (≈ 771 µM) | CCOCCC/C=C/[C@@H]1CCC(=O)[C@H]1CCCCCCC(=O)O (relative stereo) [18-oxa-9-oxo-13-trans-prostenoic acid]
250 (≈ 789 µM) | O=C(O)CCCCCCC1C(O)CCC1C=CCCCCl (stereo not drawn) [9-hydroxy-20-chloro-17,18,19-trinor-13-trans-prostenoic acid]

system: Streptococcus pyogenes C 203; assay: agar-dilution streak-plate antimicrobial assay; type: cell-based; details: C203, read-out: Minimal inhibitory conc. (8)
Summary of the method: as §2

MIC [µg/mL] | Structure (SMILES)
62 (≈ 196 µM) | O=C(O)CCCCCCC1C(O)CCC1C=CCCCCl (stereo not drawn) [9-hydroxy-20-chloro-17,18,19-trinor-13-trans-prostenoic acid]

system: Microsporum gypseum ATCC 14683; assay: agar-dilution streak-plate antimicrobial assay; type: cell-based; details: Nannizzia gypsea, ATCC14683, read-out: Minimal inhibitory conc. (2)
Summary of the method: as §2

MIC [µg/mL] | Structure (SMILES)
250 (≈ 734 µM) | CCSCCC/C=C/[C@@H]1CCC(=O)[C@H]1CCCCCCC(=O)O (relative stereo) [9-oxo-18-thia-13-trans-prostenoic acid]
250 (≈ 789 µM) | O=C(O)CCCCCCC1C(O)CCC1C=CCCCCl (stereo not drawn) [9-hydroxy-20-chloro-17,18,19-trinor-13-trans-prostenoic acid]
